One experiment addresses hCA I (Homo sapiens, UniProt P00915). Description: Carbonic anhydrase inhibition, stopped-flow CO2 hydration assay, isoenzyme CA I.
The target in another experiment is hCA II (Homo sapiens, UniProt P00918). In words: Carbonic anhydrase inhibition, stopped-flow CO2 hydration assay, isoenzyme CA II.
For a further experiment, the target named is hCA IV (Homo sapiens, UniProt P22748). Description: Carbonic anhydrase inhibition, stopped-flow CO2 hydration assay, isoenzyme CA IV.
hCA IV, sequence (P22748 19-284 limits assumed): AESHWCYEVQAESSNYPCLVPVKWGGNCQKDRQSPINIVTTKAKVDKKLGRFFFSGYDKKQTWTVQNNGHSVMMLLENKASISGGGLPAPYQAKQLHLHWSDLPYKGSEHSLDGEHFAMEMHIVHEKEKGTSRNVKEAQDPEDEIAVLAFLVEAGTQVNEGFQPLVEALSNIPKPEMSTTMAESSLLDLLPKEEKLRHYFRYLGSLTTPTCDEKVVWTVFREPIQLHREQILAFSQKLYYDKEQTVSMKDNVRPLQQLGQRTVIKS

Consider 2 compounds from US20100063035A1, “CARBONIC ANHYDRASE INHIBITORS DERIVATIVES” (Nicox S.A., priority 2006, published 2010).

hCA I, sequence (P00915 whole entry): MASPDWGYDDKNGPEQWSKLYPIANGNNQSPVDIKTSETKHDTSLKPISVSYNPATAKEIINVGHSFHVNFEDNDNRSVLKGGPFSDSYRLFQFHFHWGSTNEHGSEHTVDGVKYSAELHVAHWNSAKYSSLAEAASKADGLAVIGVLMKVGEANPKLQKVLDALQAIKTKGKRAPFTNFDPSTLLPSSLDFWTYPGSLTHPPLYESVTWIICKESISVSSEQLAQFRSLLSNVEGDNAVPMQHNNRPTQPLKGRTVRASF
Protocol for hCA II: (§1) An SX.18MV-R Applied Photophysics stopped flow instrument was used for assaying the CA CO2 hydration activity. […] The buffer solution was constituted by 10 mM HEPES, 0.1 M Na2SO4, and TRIZMA hydrochloride 0.01 M, adjusting the pH solution at 7.5 with NaOH (0.1 M). […] Satured CO2 solution in bidistilled water at 20° C. was used as substrate.
(§2) Stock solutions of inhibitor (1 mM) were prepared with buffer solution with 10-20% (v/v) DMSO, and dilutions up to 0.1 nM. To allow for the formation of the E-1 complex, inhibitor and enzyme solutions were preincubated during 15 min at room temperature prior to assay. Enzyme concentration was 0.1 μM for CA I and II, 10 μM for CA IV. The human CA I and CA II are commercially available, whereas hCA IV (tumor) is cloned isoform.
Each experiment was done in triplicate.
Protocol for hCA IV: as §1, §2
Each experiment was done in triplicate.

With `CCN[C@H]1CC(C)S(=O)(=O)c2sc(S(=O)(=O)NC(=O)OCCCCO[N+](=O)[O-])cc21` (stereo partly drawn) [Ex. 7, (4S-trans)-4-(ethylamino)-5,6-dihydro-6-methyl-4H-thieno[2,3-b]thiopyran-2-sulfonylamido-N-(4-(nitrooxy)butyloxycarbonyl)-7,7-dioxide], the Ki at hCA I was 42.3 µM; at hCA II, 0.886 µM; on hCA IV it was 0.411 µM.

With `CCN[C@H]1CC(C)S(=O)(=O)c2sc(S(=O)(=O)NC(=O)CCCCCO[N+](=O)[O-])cc21` (stereo partly drawn) [Ex. 1, (4S-trans)-4-(ethylamino)-5,6-dihydro-6-methyl-4H-thieno[2,3-b]thiopyran-2-sulfonylamido-N((6-nitrooxy)hexanoyl)-7,7-dioxide], the Ki at hCA I turned out to be 15 µM; on hCA II, 0.251 µM; on hCA IV, 3.4 µM.
